The values that follow come from patent US7981903B2, “2-[2-{phenylamino}-1H-pyrrolo[2,3-D]pyrimidin-4-yl)amino] benzamide derivatives as IGF-1R inhibitors for the treatment of cancer” (GlaxoSmithKline LLC, priority 2007, dated 2011).

For assay [1], the target named is T1, NIH-3T3 cells overexpressing human IR (Homo sapiens, UniProt P06213).
T1 construct: expressed in transfected cells; host or cells: NIH-3T3 (mouse fibroblasts)
Description: IR cellular autophosphorylation (DELFIA). It is filed as cell-based. Particulars: 2 h compound, insulin 3 ug/ml for 15 minutes, IC50 category. A digest of the protocol:
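Receptor autophosphorylation measured by DELFIA, capturing IGF-1R or IRβ and detecting with europium anti-pTyr, reported as percent of IGF-1- or insulin-stimulated signal. Compounds (30 uM to 1.5 nM) added 2 h before ligand, then 15 min stimulation (IGF-1 30 ng/ml or insulin 3 ug/ml).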

A further assay has as its target T2, human IR (hIR) (Homo sapiens, UniProt P06213).
T2 construct: containing amino acid residues 979-1382 of human IR; made in house; host or cells: Sf9 cells (baculovirus), same process as hIGF1R
Description: TR-FRET kinase assay of purified hIR. It is filed as biochemical. As to conditions: activated hIR 0.5 nM, 10 μM ATP, values given as pIC50 category. (Time-resolved FRET reads energy transfer from a long-lived donor to a nearby acceptor.)

Another assay addresses ALK (Homo sapiens, UniProt Q9UM73). Description: ALK enzyme assay (HTRF). As to conditions: 0.25 nM ALK, 15.0 μM ATP, values given as pIC50 category. It counts as biochemical. A digest of the protocol: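 Isolated ALK phosphorylates a biotinylated tyrosine peptide, 120 min at 20° C; anti-phosphotyrosine Eu-cryptate/streptavidin-XL665 HTRF read after 60 min with EDTA-containing detection mix.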

SMILES strings stand for the structures. Several values for one entry are separate records, joined by “and”; a condition that tells them apart may be missing. Equal values may be shown once.

Sequence of ALK (Q9UM73 19-1620): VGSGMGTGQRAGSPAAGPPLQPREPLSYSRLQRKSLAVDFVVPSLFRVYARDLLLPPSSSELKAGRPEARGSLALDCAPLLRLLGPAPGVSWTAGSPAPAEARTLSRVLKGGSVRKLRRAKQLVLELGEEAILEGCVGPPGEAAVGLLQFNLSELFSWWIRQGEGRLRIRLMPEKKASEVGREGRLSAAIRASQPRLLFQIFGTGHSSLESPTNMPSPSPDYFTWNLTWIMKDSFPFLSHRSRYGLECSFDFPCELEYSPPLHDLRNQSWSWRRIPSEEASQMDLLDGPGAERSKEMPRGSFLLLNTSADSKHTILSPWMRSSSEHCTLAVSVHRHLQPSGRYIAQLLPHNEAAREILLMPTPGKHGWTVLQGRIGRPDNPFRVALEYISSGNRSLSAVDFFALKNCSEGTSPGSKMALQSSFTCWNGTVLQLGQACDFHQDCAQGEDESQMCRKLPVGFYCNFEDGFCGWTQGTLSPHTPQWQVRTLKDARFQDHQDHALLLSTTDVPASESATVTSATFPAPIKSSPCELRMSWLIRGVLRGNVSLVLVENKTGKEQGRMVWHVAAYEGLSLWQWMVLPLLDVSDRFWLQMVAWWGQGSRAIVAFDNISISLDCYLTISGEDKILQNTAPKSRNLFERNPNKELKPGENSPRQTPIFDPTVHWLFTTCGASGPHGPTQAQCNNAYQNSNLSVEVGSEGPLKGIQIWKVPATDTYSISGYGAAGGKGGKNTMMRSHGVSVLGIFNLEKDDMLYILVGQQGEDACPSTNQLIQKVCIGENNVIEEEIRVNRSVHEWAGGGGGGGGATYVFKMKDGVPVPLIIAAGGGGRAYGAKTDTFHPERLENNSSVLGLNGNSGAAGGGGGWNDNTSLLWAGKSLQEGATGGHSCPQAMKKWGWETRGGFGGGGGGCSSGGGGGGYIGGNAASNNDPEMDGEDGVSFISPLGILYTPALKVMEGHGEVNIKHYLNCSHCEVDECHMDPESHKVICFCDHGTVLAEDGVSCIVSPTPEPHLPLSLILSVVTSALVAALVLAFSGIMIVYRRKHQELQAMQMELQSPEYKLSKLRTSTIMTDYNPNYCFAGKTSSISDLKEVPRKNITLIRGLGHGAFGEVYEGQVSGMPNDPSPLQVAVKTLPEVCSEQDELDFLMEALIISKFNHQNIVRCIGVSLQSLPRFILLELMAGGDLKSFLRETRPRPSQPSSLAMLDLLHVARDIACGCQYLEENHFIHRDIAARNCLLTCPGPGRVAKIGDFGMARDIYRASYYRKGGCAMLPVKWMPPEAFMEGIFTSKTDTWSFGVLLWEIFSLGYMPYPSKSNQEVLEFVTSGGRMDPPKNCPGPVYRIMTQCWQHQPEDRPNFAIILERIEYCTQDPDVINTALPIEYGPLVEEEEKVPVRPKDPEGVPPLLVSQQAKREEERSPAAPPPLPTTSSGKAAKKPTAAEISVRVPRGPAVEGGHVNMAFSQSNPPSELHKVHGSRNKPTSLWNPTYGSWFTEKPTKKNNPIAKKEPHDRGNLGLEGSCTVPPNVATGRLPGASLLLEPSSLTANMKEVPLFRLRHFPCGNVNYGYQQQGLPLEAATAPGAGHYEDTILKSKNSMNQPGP
T2 sequence (P06213 979-1382): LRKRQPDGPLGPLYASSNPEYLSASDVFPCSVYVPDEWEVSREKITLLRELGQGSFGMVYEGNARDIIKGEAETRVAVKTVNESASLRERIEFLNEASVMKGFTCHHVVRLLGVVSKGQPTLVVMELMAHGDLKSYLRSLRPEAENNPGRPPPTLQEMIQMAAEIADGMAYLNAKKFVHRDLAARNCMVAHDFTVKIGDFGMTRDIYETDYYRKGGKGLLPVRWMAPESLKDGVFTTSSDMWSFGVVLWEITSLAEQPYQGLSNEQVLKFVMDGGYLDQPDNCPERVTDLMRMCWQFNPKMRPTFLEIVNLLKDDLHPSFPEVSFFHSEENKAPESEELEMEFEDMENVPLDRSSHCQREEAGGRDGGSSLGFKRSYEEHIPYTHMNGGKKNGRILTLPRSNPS
T1 sequence (P06213 28-1382): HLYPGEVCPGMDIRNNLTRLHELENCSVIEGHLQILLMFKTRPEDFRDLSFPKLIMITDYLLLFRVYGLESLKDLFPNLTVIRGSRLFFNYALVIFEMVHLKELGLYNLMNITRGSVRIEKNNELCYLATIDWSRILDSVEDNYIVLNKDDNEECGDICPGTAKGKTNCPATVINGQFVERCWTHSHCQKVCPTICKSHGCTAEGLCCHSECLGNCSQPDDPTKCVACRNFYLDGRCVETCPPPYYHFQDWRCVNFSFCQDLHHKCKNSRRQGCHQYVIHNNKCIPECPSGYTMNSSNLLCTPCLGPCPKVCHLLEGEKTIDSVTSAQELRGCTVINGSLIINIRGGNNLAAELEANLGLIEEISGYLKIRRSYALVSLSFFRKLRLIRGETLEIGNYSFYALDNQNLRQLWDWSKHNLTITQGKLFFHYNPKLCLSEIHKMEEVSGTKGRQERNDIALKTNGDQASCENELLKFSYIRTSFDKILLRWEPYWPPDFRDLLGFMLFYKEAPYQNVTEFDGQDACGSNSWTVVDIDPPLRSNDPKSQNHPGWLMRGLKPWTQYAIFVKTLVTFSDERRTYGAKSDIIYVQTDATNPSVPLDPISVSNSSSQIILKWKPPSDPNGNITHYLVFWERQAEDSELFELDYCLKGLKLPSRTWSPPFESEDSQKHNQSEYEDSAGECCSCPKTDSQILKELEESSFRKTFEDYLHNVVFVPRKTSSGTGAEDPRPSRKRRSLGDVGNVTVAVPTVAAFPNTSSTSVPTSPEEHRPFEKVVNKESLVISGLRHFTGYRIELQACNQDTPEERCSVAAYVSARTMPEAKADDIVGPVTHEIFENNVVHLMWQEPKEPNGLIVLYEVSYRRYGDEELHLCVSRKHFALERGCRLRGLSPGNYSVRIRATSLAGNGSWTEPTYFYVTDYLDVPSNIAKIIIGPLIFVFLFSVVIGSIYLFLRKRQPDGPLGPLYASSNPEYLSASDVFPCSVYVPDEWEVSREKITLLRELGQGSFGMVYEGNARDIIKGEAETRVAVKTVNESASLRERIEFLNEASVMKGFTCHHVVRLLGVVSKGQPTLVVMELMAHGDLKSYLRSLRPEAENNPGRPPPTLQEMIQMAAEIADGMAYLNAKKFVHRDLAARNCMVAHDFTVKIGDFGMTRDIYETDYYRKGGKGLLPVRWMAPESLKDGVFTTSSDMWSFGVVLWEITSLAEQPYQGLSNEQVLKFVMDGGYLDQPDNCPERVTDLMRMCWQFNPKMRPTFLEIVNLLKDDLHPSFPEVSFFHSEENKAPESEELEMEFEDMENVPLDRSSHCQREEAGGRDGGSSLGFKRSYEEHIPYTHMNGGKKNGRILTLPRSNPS

As usually defined, the IC50 is the midpoint of a concentration-inhibition curve. A higher IC50 goes with weaker potency. Consider `COc1cc(N2CCC(N3CCN(CCF)CC3)CC2)ccc1Nc1nc(Nc2cccc(F)c2C(N)=O)c2cc[nH]c2n1` [Example 114, 2-fluoro-6-[(2-{[4-{4-[4-(2-fluoroethyl)-1-piperazinyl]-1-piperidinyl}-2-(methyloxy)phenyl]amino}-1H-pyrrolo[2,3-d]pyrimidin-4-yl)amino]benzamide], for which the IC50 is less than 100 nM in assay [1], 1.26 to 3.98 nM against human IR (hIR) and 1.26 to 3.98 nM against ALK.

As to `CCN(CC)CC(=O)N1CCc2cc(OC)c(Nc3nc(Nc4cccc(F)c4C(N)=O)c4cc[nH]c4n3)cc21` [Example 136, 2-[(2-{[1-(N,N-diethylglycyl)-5-(methyloxy)-2,3-dihydro-1H-indol-6-yl]amino}-1H-pyrrolo[2,3-d]pyrimidin-4-yl)amino]-6-fluorobenzamide], the results for the half-maximal inhibitory concentration (IC50) (in assay [1]; against human IR (hIR); on ALK) were less than 100 nM, 1.26 to 3.98 nM and 1.26 to 3.98 nM, respectively.

Take `COc1cc(N2CCC(N3CCOCC3)CC2)ccc1Nc1nc(Nc2cc(F)c(F)cc2C(N)=O)c2cc[nH]c2n1` [Example 101, 4,5-difluoro-2-{[2-({2-(methyloxy)-4-[4-(4-morpholinyl)-1-piperidinyl]phenyl}amino)-1H-pyrrolo[2,3-d]pyrimidin-4-yl]amino}benzamide]: the IC50 was more than 500 nM in assay [1], 0.251 to 1 nM on human IR (hIR) and 0.251 to 1 nM against ALK.

Turning to `CNC(=O)c1c(F)cc(Cl)cc1Nc1nc(Nc2cc3c(cc2OC)CCCN3C(=O)CN2CCCC2)nc2[nH]ccc12` [Example 174, 4-chloro-2-fluoro-N-methyl-6-[(2-{[6-(methyloxy)-1-(1-pyrrolidinylacetyl)-1,2,3,4-tetrahydro-7-quinolinyl]amino}-1H-pyrrolo[2,3-d]pyrimidin-4-yl)amino]benzamide], the IC50 was 100 to 500 nM in assay [1], 1.26 to 3.98 nM against human IR (hIR) and 1.26 to 3.98 nM on ALK.

Regarding `Cc1cc2c(cc1Nc1nc(Nc3cccc(F)c3C(N)=O)c3cc[nH]c3n1)N(C(=O)CN(C)C)CCC2` [Example 246, 2-[(2-{[1-(N,N-dimethylglycyl)-6-methyl-1,2,3,4-tetrahydro-7-quinolinyl]amino}-1H-pyrrolo[2,3-d]pyrimidin-4-yl)amino]-6-fluorobenzamide], the IC50 was 100 to 500 nM in assay [1]; 0.251 to 1 nM and 1.26 to 3.98 nM at human IR (hIR); 5.01 to 200 nM at ALK.

Consider `COc1cc(N2CCC(N3CCN(CCS(C)(=O)=O)CC3)CC2)ccc1Nc1nc(Nc2cccc(F)c2C(N)=O)c2cc[nH]c2n1` [Example 115, 2-fluoro-6-[(2-{[2-(methyloxy)-4-(4-{4-[2-(methylsulfonyl)ethyl]-1-piperazinyl}-1-piperidinyl)phenyl]amino}-1H-pyrrolo[2,3-d]pyrimidin-4-yl)amino]benzamide], for which the IC50 in assay [1] was 100 to 500 nM; at human IR (hIR), 1.26 to 3.98 nM; on ALK it was 0.251 to 1 nM.

As for `COc1ccc(N2CCN(C(C)C)CC2)cc1Nc1nc(Nc2ccccc2C(N)=O)c2cc[nH]c2n1` [Example 10, 2-[(2-{[5-[4-(1-methylethyl)-1-piperazinyl]-2-(methyloxy)phenyl]amino}-1H-pyrrolo[2,3-d]pyrimidin-4-yl)amino]benzamide], the IC50 was 100 to 500 nM in assay [1], 1.26 to 3.98 nM at human IR (hIR) and 1.26 to 3.98 nM at ALK.

For the molecule `CCN(CCO)CC(=O)N1CCc2cc(OC)c(Nc3nc(Nc4cccc(F)c4C(N)=O)c4cc[nH]c4n3)cc21` [Example 177, 2-[(2-{[1-[N-ethyl-N-(2-hydroxyethyl)glycyl]-5-(methyloxy)-2,3-dihydro-1H-indol-6-yl]amino}-1H-pyrrolo[2,3-d]pyrimidin-4-yl)amino]-6-fluorobenzamide], the IC50 in assay [1] was 100 to 500 nM; at human IR (hIR) it was 1.26 to 3.98 nM; on ALK, 1.26 to 3.98 nM.

For the molecule `COc1cc(N2CCN(CC3CC3)CC2)ccc1Nc1nc(Nc2cc(F)ccc2C(N)=O)c2cc[nH]c2n1` [Example 81, 2-[(2-{[4-[4-(cyclopropylmethyl)-1-piperazinyl]-2-(methyloxy)phenyl]amino}-1H-pyrrolo[2,3-d]pyrimidin-4-yl)amino]-4-fluorobenzamide], the figures for the IC50 (in assay [1]; against human IR (hIR); against ALK) were 100 to 500 nM, 1.26 to 3.98 nM and 0.251 to 1 nM, respectively.
